In brackets after ≈: the same amount, converted by molar mass. Entries after “also recorded” stand apart in the source; their conditions may differ. Structures can show the parent of a compound that is named as a salt.
Key:
Slc:ddY mice = assay: Central toxicity after cisternal administration, alone or combined with biphenylacetic acid; type: in vivo; conditions: 5 μg/mouse
Experimental: Slc:ddY mice (male; 3 weeks old) were used in groups of ten. Compound (1) was dissolved in distilled water in order to prepare injections, and the resultant solution was cisternally administered in a volume of […]. To the members of the group where compound (1) and biphenylacetic acid were used in combination, biphenylacetic acid (400 mg/kg) was perorally administered first, and 30 minutes following the administration, compound (1) was cisternally administered in a manner similar to that employed for the single use of compound (1).

Pr. vulgaris, 08601 = assay: Antibacterial activity (MIC), Japanese Society of Chemotherapy standard method; type: cell-based; conditions: Proteus vulgaris
Experimental: (§1) Antibacterial activity was investigated by comparing compound (1) with comparative compounds B and C (see next page). This test was performed according to the standard method recommended by Japanese Society of Chemotherapy.

E. coli, NIHJ = assay: as above; type: cell-based; conditions: Escherichia coli
Experimental: as §1

S. aureus, 209P = assay: as above; type: cell-based; conditions: Staphylococcus aureus
Experimental: as §1

Ser. marcescens, 10100 = assay: as above; type: cell-based; conditions: Serratia marcescens
Experimental: as §1

Ps. aeruginosa, 32121 = assay: as above; type: cell-based; conditions: Pseudomonas aeruginosa
Experimental: as §1

[1] = system: Str. faecalis, ATCC 19433; assay: as above; type: cell-based; conditions: Enterococcus faecalis, ATCC19433
Experimental: as §1

S. epidermidis, 56500 = assay: as above; type: cell-based; conditions: Staphylococcus epidermidis
Experimental: as §1

Ps. aeruginosa, 32104 = assay: as above; type: cell-based; conditions: Pseudomonas aeruginosa
Experimental: as §1

Balb/c mice = assay: Phototoxicity: intravenous administration, then UV-A exposure; type: in vivo; conditions: intravenous 100 mg/kg, UV-A 20 J/cm^2 for four hours
Experimental: Groups of Balb/c mice (female; 5 weeks old), each group consisting of 5-6 mice, were used in the test. After compound (1) was intravenously administered to each mouse, the mouse was exposed to long-wavelength UV light (UV-A) (20 J/cm^2) for four hours. Thereafter, the auricle was visually observed for 96 hours. Subsequently the mouse was sacrificed for examination of the tissue. […] Thus, compound (1) is a very safe compound, being free from phototoxicity, which is often observed with quinolone-based antibacterial agents.

[2] = Storage stability for one week (heat, humidity, light), residual amount by liquid chromatography; type: physicochemical
Experimental: Compound (1) (1.5 mg) was stored for one week under the following conditions: (1) in a sealed bottle at 70° C., (2) in an open-air state at 50° C., 75% RH (NaCl), or (3) irradiation with light at 100,000 lx·h (2,500 lx×40 h). Subsequently, the residual amount of compound (1) was quantitatively determined by means of liquid chromatography.

E. coli strain E77156 = assay: Infection-preventing effect on mouse sepsis model (E. coli); type: in vivo; conditions: Slc:ddY mice, intraperitoneal E. coli E77156 8.08×10^7 CFU/mouse, single tail vein injection
Experimental: (§2) Groups of Slc:ddY mice, each group consisting of 7 mice, were used in the test. The mice were intraperitoneally inoculated with methicillin-resistant Staphylococcus aureus (MRSA) strain 7866 (1.07×10^8 CFU/mouse) or E. coli strain E77156 (8.08×10^7 CFU/mouse). Compound (1) was given as a single injection into the tail vein of each mouse immediately after infection. On the basis of the survival count on day 7 after infection, 50% efficacy was calculated using the probit method, to thereby evaluate the efficacy.

[3] = Moisture absorption/desorption (moisture absorption analyzer, weight change at 5-95% RH); type: physicochemical; conditions: 25° C., relative humidity 5-95% RH; monohydrochloride monohydrate
Experimental: Moisture absorption/desorption of compound (1) was investigated by using samples each weighing approximately 10 mg and a moisture absorption analyzer manufactured by VTI (model SGA-100). The measurement was performed at 25° C., and the relative humidity was changed in the range of 5% to 95% at intervals of 5% or 10%. When the weight change of a sample is 0.03% or less within 30 minutes, the sample is considered to be in a state of equilibrium, and in this test, the longest equilibrium time was set to be 180 minutes. The weight change of each sample at different relative humidities was determined.

pneumococcus SPI-13 = assay: Therapeutic effect on mouse pneumonia model with pneumococcus of low penicillin sensitivity; type: in vivo; conditions: CBA/J mice
Experimental: Groups of CBA/J mice, each group consisting of 5 mice, were used in the test. The mice were nasally infected with pneumococcus SPI-13 at 5.3×10^6 CFU/mouse. Compound (1) was subcutaneously administered to each mouse at doses of 7.5 mg/kg, 15 mg/kg, or 30 mg/kg, for three consecutive days from the day following infection, twice a day at an interval of 6 hours. The efficacy of compound (1) was assessed by counting the number of the intrapulmonary bacteria on the day following the final administration.

[4] = system: arthrodial cartilage of young beagles; assay: Articular toxicity in young beagles, peroral for eight days; type: in vivo; conditions: 7.5 mg/kg, 15 mg/kg and 30 mg/kg
Text: Groups of young beagles (male; 3-4 months old), each group consisting of 3 dogs, were used in the test. Compound (1) was perorally administered to each dog for eight days. Thereafter, important diarthroses were pathologically examined. […] Thus, articular toxicity of compound (1) is quite weak and insignificant, proving that compound (1) is a very safe compound.

Solubility in water = type: physicochemical
Text: Solubility of compound (1) in water was investigated.

[5] = system: methicillin-resistant Staphylococcus aureus (MRSA) strain 7866; assay: Infection-preventing effect on mouse sepsis model (MRSA); type: in vivo; conditions: Slc:ddY mice, intraperitoneal MRSA 7866 1.07×10^8 CFU/mouse, single tail vein injection
Experimental: as §2

[6] = Stability of acid addition salts of compound (1a) under various levels of humidity; conditions: high-humidity conditions
[7] = combined: biphenylacetic acid 400 mg/kg perorally 30 minutes before cisternal administration
[8] = solo cisternal administration, groups of ten

| MIC (Pr. vulgaris, 08601) | MIC (E. coli, NIHJ) | MIC (S. aureus, 209P) | MIC (Ser. marcescens, 10100) | MIC (Ps. aeruginosa, 32121) | MIC [1] | MIC (S. epidermidis, 56500) | MIC (Ps. aeruginosa, 32104) | SMILES | Death (Slc:ddY mice; [7]) | Death (Slc:ddY mice; [8]) | Spasm (Slc:ddY mice; [8]) | further results |
| --- | --- | --- | --- | --- | --- | --- | --- | --- | --- | --- | --- | --- |
|  |  |  |  |  |  |  |  | COc1c(N2C[C@@H](N)[C@@H](C)C2)c(F)cc2c(=O)c(C(=O)O)cn([C@@H]3C[C@@H]3F)c12 [Comparative Compound A, reference compound] | two | one | two |  |
| 0.05 µg/mL (≈ 0.119 µM) | 0.006 µg/mL (≈ 0.0143 µM) | 0.025 µg/mL (≈ 0.0596 µM) | 0.2 µg/mL (≈ 0.477 µM) | 0.2 µg/mL (≈ 0.477 µM) | 0.2 µg/mL (≈ 0.477 µM) | 0.1 µg/mL (≈ 0.238 µM) | 0.39 µg/mL (≈ 0.93 µM) | CCOc1c(N2C[C@@H](N)C3(CC3)C2)c(F)cc2c(=O)c(C(=O)O)cn([C@@H]3C[C@@H]3F)c12 [Comparative Compound B] |  |  |  |  |
| 0.05 µg/mL (≈ 0.123 µM) | 0.025 µg/mL (≈ 0.0614 µM) | 0.05 µg/mL (≈ 0.123 µM) | 0.2 µg/mL (≈ 0.491 µM) | 0.39 µg/mL (≈ 0.957 µM) | 0.39 µg/mL (≈ 0.957 µM) | 0.2 µg/mL (≈ 0.491 µM) | 0.78 µg/mL (≈ 1.91 µM) | CCOc1c(N2CC(C)C(N)C2)c(F)cc2c(=O)c(C(=O)O)cn([C@@H]3C[C@@H]3F)c12 (stereo partly shown) [Comparative Compound C] |  |  |  |  |
|  |  |  |  |  |  |  |  | COc1c(N2C[C@@H](N)C3(CC3)C2)c(F)cc2c(=O)c(C(=O)O)cn([C@@H]3C[C@@H]3F)c12.CS(=O)(=O)O [methanesulfonic acid salt, Methanesulfonic Acid Salt of (−)-7-{(7S)-7-amino-5-azaspiro[2.4]heptan-5-yl}-6-fluoro-1-[(1R, 2S)-2-fluoro-1-cyclopropyl]-1,4-dihydro-8-methoxy-4-oxo-3-quinolinecarboxylic acid] |  |  |  | Stability under various levels of humidity [6]: tendency toward moisture absorption |

| SMILES | MIC (Pr. vulgaris, 08601) | MIC (E. coli, NIHJ) | MIC (S. aureus, 209P) | MIC (Ser. marcescens, 10100) | MIC (Ps. aeruginosa, 32121) | MIC [1] | MIC (S. epidermidis, 56500) | MIC (Ps. aeruginosa, 32104) | Death (Slc:ddY mice; [7]) | Death (Slc:ddY mice; [8]) | Spasm (Slc:ddY mice; [8]) | further results |
| --- | --- | --- | --- | --- | --- | --- | --- | --- | --- | --- | --- | --- |
| COc1c(N2C[C@@H](N)C3(CC3)C2)c(F)cc2c(=O)c(C(=O)O)cn([C@@H]3C[C@@H]3F)c12 [Compound (1), (−)-7-[(7S)-7-amino-5-azaspiro[2.4]heptan-5-yl]-6-fluoro-1-[(1R, 2S)-2-fluoro-1-cyclopropyl]-1,4-dihydro-8-methoxy-4-oxo-3-quinolinecarboxylic acid monohydrochloride monohydrate] | 0.012 µg/mL | ≤ 0.003 µg/mL | 0.006 µg/mL | 0.05 µg/mL | 0.05 µg/mL | 0.1 µg/mL | 0.05 µg/mL | 0.2 µg/mL | neither spasm nor death | neither spasm nor death | neither spasm nor death | Phototoxicity: abnormality of auricle (visual observation 96 hours, tissue examination) (Balb/c mice): no abnormality was observed; Stability when exposed to light, compared with compound No. 26bb ([2]; light 100,000 lx·h (2,500 lx×40 h)): superior to that of compound No. 26bb; Stability (residual amount by liquid chromatography) ([2]; one week: sealed bottle 70° C., open 50° C., 75% RH, light 100,000 lx·h): remained stable, not undergoing any decomposition; 50% efficacy (probit method, survival count on day 7) (E. coli strain E77156): 0.57 mg/kg; Moisture absorption/desorption (weight change) [3]: neither absorbing or desorbing moisture; also recorded: do not absorb or desorb moisture; Spasm (Slc:ddY mice; [7]): neither spasm nor death; Number of intrapulmonary bacteria (pneumococcus SPI-13; subcutaneous 7.5 mg/kg twice a day for three days): approximately half that of the control; Number of intrapulmonary bacteria (pneumococcus SPI-13; subcutaneous 15 mg/kg twice a day for three days): below the detection limit; Number of intrapulmonary bacteria (pneumococcus SPI-13; subcutaneous 30 mg/kg twice a day for three days): below the detection limit; Formation of blebs or erosions in arthrodial cartilage [4]: not at all observed; solubility (Solubility in water): ≥ 100 mg/mL; 50% efficacy (probit method, survival count on day 7) [5]: 3.34 mg/kg |

— patent publication US6900225B2, “Quinolonecarboxylic acid derivative” (Daiichi Pharmaceutical Co., Ltd., priority 2001, dated 2005)
